This is an account of results in patent US10865208B2, “ATG7 inhibitors and the uses thereof” (Millennium Pharmaceuticals, Inc., priority 2016, dated 2020).

The target in this test is recombinant human His-ATG7 enzyme (Homo sapiens (Human), UniProt O95352). Description: ATG7 Enzyme Assay (HTRF/FRET, ATG3-GST and Flag-Gabarap). Type of test: biochemical. The following applies: for inhibition at 0.123 µM / inhibition at 0.111 µM: read-out: Percent Inhibition; for inhibition at 0.111 µM: Concentration 0.111 μM. The procedure, abridged:
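HTRF read-out after 2 h at 24° C, using Eu-cryptate anti-Flag and XL-APC anti-GST antibodies in an EDTA stop buffer. The preceding 105 min, 24° C reaction (pH 7.5) held 10 μM ATP, 5 nM each ATG3-GST and Flag-Gabarap, and 0.15 nM human His-ATG7. Values are IC50 or percent inhibition at one concentration.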
A general note: Time-resolved FRET reads energy transfer from a long-lived donor to a nearby acceptor.

Bounds are passed on as bounds.

Sequence of recombinant human His-ATG7 enzyme (O95352 whole entry): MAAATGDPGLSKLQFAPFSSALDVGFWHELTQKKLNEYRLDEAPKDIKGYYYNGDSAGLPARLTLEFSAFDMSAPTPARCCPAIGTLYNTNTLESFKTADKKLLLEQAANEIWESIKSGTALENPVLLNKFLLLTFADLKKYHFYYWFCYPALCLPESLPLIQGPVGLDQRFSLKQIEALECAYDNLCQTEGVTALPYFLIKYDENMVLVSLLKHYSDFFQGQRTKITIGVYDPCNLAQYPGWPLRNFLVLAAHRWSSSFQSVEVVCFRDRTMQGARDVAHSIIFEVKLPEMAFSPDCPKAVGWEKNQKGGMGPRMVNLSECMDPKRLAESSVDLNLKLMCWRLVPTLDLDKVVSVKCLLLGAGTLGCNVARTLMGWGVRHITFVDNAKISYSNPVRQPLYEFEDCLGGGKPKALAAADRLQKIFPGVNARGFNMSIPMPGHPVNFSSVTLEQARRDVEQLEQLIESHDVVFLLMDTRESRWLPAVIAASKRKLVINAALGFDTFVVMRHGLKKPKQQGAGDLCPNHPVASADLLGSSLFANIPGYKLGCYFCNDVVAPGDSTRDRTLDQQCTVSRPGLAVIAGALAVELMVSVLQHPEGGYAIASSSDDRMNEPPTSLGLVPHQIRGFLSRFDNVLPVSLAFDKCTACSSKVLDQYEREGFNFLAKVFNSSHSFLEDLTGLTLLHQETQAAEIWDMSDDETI

By IC50 is commonly meant the point on the concentration scale where inhibition reaches its midpoint. In the case of `CC(O)CSc1nn([C@@H]2O[C@H](COS(N)(=O)=O)[C@@H](O)[C@H]2O)c2ncnc(N)c12` (single isomer, unassigned) [Compound I-55a, [(2R,3S,4R,5R)-5-(4-amino-3-{[(2R)-2-hydroxypropyl]sulfanyl}-1H-pyrazolo[3,4-d]pyrimidin-1-yl)-3,4-dihydroxytetrahydrofuran-2-yl]methyl sulfamate or [(2R,3S,4R,5R)-5-(4-amino-3-{[(2S)-2-hydroxypropyl]sulfanyl}-1H-pyrazolo[3,4-d]pyrimidin-1-yl)-3,4-dihydroxytetrahydrofuran-2-yl]methyl Sulfamate], the IC50 lay in the range of 50 to 100 nM. Also, where the note is “Concentration 0.123 μM”, the “Percent Inhibition” value came out at 71%.

In general, inhibition refers to how much of the control response was suppressed. As for `COc1nn([C@@H]2O[C@H](COS(N)(=O)=O)[C@@H](O)[C@H]2O)c2ncnc(N)c12` [Compound I-1, [(2R,3S,4R,5R)-5-(4-amino-3-methoxy-1H-pyrazolo[3,4-d]pyrimidin-1-yl)-3,4-dihydroxytetrahydrofuran-2-yl]methyl sulfamate], the half-maximal inhibitory concentration (IC50) lay within 50 to 100 nM. In addition, the inhibition at 0.123 µM (Concentration 0.123 μM) was 51%.

As to `Nc1ncnc2c1c(Sc1ccc3c(c1)OCO3)nn2[C@H]1C[C@H](O)[C@@H](COS(N)(=O)=O)O1` [Compound I-175, {(2R,3S,5R)-5-[4-amino-3-(1,3-benzodioxol-5-ylsulfanyl)-1H-pyrazolo[3,4-d]pyrimidin-1-yl]-3-hydroxytetrahydrofuran-2-yl}methyl sulfamate], the IC50 was in the range of 50 to 100 nM and the inhibition at 0.111 µM was determined as 66%.

On to `Nc1ncnc2c1cnn2[C@H]1C[C@H](O)C(COS(N)(=O)=O)O1` (stereo in doubt) [Compound I-226, [(2S,3S,5R)-5-(4-amino-1H-pyrazolo[3,4-d]pyrimidin-1-yl)-3-hydroxytetrahydrofuran-2-yl]methyl sulfamate], for which the IC50 is greater than 500 nM and the inhibition at 0.111 µM amounted to 5%.

For the compound `COC(=O)c1nn([C@@H]2O[C@H](COS(N)(=O)=O)C(O)C2O)c2ncnc(N)c12` (stereo in doubt) [Compound I-20, methyl 4-amino-1-{(2R,3S,4R,5R)-3,4-dihydroxy-5-[(sulfamoyloxy)methyl]tetrahydrofuran-2-yl}-1H-pyrazolo[3,4-d]pyrimidine-3-carboxylate], the IC50 lay within 100 to 500 nM. Moreover, the inhibition at 0.123 µM (Concentration 0.123 μM) is 45%.

As for `CC(Sc1nn([C@@H]2O[C@H](COS(N)(=O)=O)[C@@H](O)[C@@H]2F)c2ncnc(N)c12)C(F)(F)F` (mixture of isomers) [Compound I-101, [(2R,3R,4S,5R)-5-(4-amino-3-{[(2R)-1,1,1-trifluoropropan-2-yl]sulfanyl}-1H-pyrazolo[3,4-d]pyrimidin-1-yl)-4-fluoro-3-hydroxytetrahydrofuran-2-yl]methyl Sulfamate and [(2R,3R,4S,5R)-5-(4-amino-3-{[(2S)-1,1,1-trifluoropropan-2-yl]sulfanyl}-1H-pyrazolo[3,4-d]pyrimidin-1-yl)-4-fluoro-3-hydroxytetrahydrofuran-2-yl]methyl Sulfamate], the IC50 is greater than 500 nM and the inhibition at 0.111 µM is 13%.

Consider `Nc1ncnc2c1c(SCc1ccccc1)nn2[C@@H]1O[C@H](COS(N)(=O)=O)[C@@H](O)[C@H]1O` [Compound I-52, {(2R,3S,4R,5R)-5-[4-amino-3-(benzylsulfanyl)-1H-pyrazolo[3,4-d]pyrimidin-1-yl]-3,4-dihydroxytetrahydrofuran-2-yl}methyl sulfamate], for which the IC50 lay in the range of 20 to 50 nM. Further, the inhibition at 0.123 µM (Concentration 0.123 μM) was determined as 83%.

Turning to `Nc1ncnc2c1c(SC1CCC1)nn2[C@@H]1O[C@H](COS(N)(=O)=O)[C@@H](O)[C@H]1O` [Compound I-56, {(2R,3S,4R,5R)-5-[4-amino-3-(cyclobutylsulfanyl)-1H-pyrazolo[3,4-d]pyrimidin-1-yl]-3,4-dihydroxytetrahydrofuran-2-yl}methyl sulfamate], the IC50 was less than 20 nM and the inhibition at 0.111 µM was found to be 84%.
